Reference: ChEMBL document CHEMBL1201862, “PubChem BioAssay data set” (2004)
Active and inactive are the calls of the source.

Assays:
[1] = biological target: Dual specificity tyrosine-phosphorylation-regulated kinase 1A (Rattus norvegicus, UniProt Q63470); format: biochemical, Homo sapiens
[2] = viability loss in CEM21 cells – cell-based, CellTiter-Glo luminescence, cherry-picked, cytotoxicity control for viral fusion inhibitor project, dose response (AID 652042); format: functional;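 also: potency for signal decrease meaning cytotoxicity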
[3] = blockers of HIV-1 ZM109 envelope-driven cell-cell fusion – HeLa effector, CEM target cells, luciferase, cherry-pick, dose response (AID 652058); format: functional, cell-based;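 also: luciferase signal from HIV-1 Env mediated cell-cell fusion of effector and target cells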
[4] = blockers of HIV-1 envelope-mediated cell-cell fusion – cherry-pick, dose response (AID 652057); format: functional, cell-based
[5] = HIV-1 AD8 envelope cell-cell fusion blockers – cherry-pick, dose response (AID 652062); format: functional, cell-based;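 also: luciferase signal from cell-cell fusion driven by HIV-1 clade B AD8 Env; potency is for inhibitors of fusion seen as a drop in luminescence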
[6] = biological target: T1, Sentrin-specific protease 6 (Homo sapiens, UniProt Q9GZR1); format: functional;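 also: Luminescence-based dose-response confirmatory assay of SENP6 inhibition, following up an ultra-high-throughput screen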
T1 sequence (Q9GZR1 whole entry): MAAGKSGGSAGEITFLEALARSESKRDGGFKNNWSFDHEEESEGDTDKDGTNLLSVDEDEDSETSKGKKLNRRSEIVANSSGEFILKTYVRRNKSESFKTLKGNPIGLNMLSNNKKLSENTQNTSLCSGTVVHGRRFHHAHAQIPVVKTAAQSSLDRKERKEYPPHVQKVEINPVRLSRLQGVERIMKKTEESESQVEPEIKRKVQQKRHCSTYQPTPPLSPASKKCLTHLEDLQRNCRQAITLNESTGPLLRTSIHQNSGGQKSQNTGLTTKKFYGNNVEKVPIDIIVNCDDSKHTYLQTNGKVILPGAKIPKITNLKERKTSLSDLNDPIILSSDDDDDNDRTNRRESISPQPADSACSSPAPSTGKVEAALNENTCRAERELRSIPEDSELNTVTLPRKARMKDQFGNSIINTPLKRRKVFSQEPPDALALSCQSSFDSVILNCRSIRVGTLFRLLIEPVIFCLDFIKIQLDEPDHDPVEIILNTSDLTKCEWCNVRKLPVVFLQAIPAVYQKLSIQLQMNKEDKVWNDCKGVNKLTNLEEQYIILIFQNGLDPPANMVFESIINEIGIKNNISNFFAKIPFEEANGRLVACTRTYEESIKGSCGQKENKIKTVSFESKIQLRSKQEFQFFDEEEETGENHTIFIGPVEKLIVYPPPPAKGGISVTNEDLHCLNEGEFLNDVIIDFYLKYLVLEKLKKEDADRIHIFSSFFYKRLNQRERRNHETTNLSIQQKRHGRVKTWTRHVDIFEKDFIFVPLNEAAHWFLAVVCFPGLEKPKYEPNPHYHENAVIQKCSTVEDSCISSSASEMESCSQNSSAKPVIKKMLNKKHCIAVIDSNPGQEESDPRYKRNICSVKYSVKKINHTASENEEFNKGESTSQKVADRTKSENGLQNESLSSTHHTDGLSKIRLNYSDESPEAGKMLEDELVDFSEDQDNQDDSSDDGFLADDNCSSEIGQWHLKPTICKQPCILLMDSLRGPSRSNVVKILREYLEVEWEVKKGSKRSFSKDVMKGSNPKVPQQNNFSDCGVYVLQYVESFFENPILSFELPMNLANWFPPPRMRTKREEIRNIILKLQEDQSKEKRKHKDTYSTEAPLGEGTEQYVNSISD

[7] = biological target: T2, Sentrin-specific protease 8 (Homo sapiens, UniProt Q96LD8); format: functional;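 also: luminescence read-out of SENP8 inhibition, dose-response confirmation following an ultra-high-throughput screen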
T2 sequence (Q96LD8 whole entry): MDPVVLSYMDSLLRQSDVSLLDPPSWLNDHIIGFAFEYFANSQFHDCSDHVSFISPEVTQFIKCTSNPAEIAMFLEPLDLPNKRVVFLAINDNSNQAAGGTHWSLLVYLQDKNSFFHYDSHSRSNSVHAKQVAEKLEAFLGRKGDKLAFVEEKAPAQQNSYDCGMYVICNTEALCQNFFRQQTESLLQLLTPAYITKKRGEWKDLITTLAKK

[8] = biological target: T3, Sentrin-specific protease 7 (Homo sapiens, UniProt Q9BQF6); format: functional;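 also: Luminescence-based dose-response confirmation of ultra-high-throughput screening hits, measuring inhibition of SENP7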
T3 sequence (Q9BQF6 whole entry): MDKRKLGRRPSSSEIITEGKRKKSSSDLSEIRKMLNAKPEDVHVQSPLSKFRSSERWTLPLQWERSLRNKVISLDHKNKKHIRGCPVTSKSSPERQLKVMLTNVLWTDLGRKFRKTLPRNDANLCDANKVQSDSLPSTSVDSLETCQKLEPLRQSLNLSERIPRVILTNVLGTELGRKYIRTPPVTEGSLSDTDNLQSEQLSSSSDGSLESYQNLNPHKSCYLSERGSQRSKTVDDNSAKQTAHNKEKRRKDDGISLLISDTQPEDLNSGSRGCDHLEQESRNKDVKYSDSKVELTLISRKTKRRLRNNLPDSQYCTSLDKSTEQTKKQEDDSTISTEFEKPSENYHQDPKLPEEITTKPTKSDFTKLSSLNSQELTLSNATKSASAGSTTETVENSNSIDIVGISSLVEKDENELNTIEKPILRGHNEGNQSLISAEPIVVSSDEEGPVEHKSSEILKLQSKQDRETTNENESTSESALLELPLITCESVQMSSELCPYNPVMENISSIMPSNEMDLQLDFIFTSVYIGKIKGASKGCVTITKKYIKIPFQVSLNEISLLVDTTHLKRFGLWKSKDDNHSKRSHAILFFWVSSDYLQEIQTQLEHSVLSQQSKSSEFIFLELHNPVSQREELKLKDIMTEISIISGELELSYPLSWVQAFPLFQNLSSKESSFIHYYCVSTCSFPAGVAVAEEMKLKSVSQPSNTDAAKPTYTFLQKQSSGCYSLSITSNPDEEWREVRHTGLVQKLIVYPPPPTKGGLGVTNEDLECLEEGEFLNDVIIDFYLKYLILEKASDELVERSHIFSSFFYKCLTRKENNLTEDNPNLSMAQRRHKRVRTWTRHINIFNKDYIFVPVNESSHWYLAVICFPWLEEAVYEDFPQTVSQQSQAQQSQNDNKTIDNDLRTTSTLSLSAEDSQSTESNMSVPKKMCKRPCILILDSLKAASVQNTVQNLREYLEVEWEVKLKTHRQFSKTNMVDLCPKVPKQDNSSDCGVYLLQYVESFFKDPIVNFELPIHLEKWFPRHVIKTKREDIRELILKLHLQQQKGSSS

[9] = system: HEK293; experiment: inhibition of NOD1-driven NF-kB reporter – cell-based, luminescence, uHTS, primary screen (AID 1578); format: functional; conditions: Homo sapiens
[10] = system: HEK293; experiment: NOD2 signaling inhibitors in MDP-stimulated cells, cell-based, uHTS, luminescence (AID 2001); format: functional; conditions: Homo sapiens
[11] = system: HEK293; experiment: cells; format: functional, cell-based; conditions: Homo sapiens
[12] = system: HEK293; experiment: cells; format: functional, cell-based; conditions: Homo sapiens; remark: listed apart in the source
[13] = off-target signal loss in HeLa-CEM21 co-culture – HeLa F-luc CTL cells, cherry-picked, counter-screen for HIV-1 Env fusion inhibitor project, dose response (AID 652040); format: functional, cell-based;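 also: potency for signal decrease marking cytotoxic or nonspecific inhibition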
[14] = P. falciparum Dd2 growth inhibitors, dose response, SYBR Green, cherry-picked samples (AID 1159567); format: functional, cell-based
[15] = Dd2 malaria parasite growth inhibition potency – SYBR Green, dry powder samples, dose response (AID 1159566); format: functional, cell-based;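 also: potency for growth inhibition with lower SYBR green DNA signal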
[16] = growth inhibition of yeast DHODH-expressing 3D7 parasites – SYBR Green, dry powder samples, dose response (AID 1159570); format: functional, cell-based;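 also: parasite growth measured after 72 hours of compound exposure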
[17] = growth inhibition of PfATP4-mutant resistant parasites – NITD609-resistant line, SYBR Green, dry powder, dose response (AID 1159571); format: functional, cell-based;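 also: parasites synchronized at ring stage by sorbitol before testing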
[18] = biological target: T4, DNA repair protein RAD52 homolog (Homo sapiens, UniProt P43351); format: functional, biochemical
T4 sequence (P43351 whole entry): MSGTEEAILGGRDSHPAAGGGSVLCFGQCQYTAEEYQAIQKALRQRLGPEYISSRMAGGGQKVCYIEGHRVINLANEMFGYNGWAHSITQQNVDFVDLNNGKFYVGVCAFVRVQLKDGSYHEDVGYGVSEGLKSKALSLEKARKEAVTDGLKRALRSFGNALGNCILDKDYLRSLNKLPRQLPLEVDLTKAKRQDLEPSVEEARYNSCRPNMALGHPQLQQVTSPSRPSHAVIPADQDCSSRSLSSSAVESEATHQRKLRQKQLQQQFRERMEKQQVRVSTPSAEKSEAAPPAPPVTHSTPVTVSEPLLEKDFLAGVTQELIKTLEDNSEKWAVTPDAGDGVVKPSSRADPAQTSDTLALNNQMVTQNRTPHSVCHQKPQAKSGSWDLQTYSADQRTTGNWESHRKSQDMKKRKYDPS

[19] = biological target: T5, Histone-lysine N-methyltransferase NSD2 (Homo sapiens, UniProt O96028); format: biochemical
T5 sequence (O96028 whole entry): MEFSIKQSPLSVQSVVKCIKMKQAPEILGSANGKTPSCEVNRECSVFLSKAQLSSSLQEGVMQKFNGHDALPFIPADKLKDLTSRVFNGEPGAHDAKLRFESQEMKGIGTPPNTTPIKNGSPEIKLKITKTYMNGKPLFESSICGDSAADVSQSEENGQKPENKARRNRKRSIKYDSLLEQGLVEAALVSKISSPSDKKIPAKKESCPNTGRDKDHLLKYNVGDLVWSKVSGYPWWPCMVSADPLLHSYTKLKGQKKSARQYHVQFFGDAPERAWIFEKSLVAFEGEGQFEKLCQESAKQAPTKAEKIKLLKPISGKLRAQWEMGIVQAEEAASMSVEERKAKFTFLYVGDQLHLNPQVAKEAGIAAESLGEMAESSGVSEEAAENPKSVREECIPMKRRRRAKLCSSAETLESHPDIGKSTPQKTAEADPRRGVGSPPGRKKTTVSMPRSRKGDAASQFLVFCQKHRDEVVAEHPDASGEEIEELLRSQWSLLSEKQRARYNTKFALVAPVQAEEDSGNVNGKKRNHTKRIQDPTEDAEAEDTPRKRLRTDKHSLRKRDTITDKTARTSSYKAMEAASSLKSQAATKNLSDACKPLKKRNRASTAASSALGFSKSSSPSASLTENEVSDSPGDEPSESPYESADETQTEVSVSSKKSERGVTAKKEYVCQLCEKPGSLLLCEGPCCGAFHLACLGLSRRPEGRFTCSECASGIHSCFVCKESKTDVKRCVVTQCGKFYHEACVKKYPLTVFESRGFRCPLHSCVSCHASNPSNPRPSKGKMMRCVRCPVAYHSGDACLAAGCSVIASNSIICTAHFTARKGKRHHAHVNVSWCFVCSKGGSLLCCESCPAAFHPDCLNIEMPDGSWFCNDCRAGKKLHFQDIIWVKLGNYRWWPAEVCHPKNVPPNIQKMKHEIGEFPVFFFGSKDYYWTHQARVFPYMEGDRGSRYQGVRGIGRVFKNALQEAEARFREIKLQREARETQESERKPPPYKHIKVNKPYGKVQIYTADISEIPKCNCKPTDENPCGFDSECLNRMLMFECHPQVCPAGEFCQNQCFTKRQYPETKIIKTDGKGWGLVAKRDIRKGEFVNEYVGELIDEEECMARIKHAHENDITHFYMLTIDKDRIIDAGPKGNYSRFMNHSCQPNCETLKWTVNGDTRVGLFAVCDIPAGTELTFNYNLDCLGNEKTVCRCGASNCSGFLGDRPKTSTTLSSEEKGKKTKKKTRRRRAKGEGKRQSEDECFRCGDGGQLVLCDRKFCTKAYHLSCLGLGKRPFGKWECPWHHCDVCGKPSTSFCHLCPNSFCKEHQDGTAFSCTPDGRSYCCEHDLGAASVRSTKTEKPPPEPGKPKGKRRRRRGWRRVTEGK

[20] = biological target: Paired box protein Pax-8 (Homo sapiens, UniProt Q06710); experiment: PAX8 transcriptional activity inhibition in RMG-I – RMG-I cells, luciferase, cherry-pick, dose response (AID 687027); format: functional, cell-based;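 also: luciferase reporter driven by Pax8 target thyroperoxidase promoter measured by SteadyGlo luminescence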
[21] = activation of miR-122 Renilla sensor silencing – cell-based, Huh7 psiCHECK-miR122, Renilla luciferase, cherry-picked, dose response (AID 651956); format: functional;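 also: huh7 hepatoma cells stably carrying a psiCHECK-2 miR-122 sensor plasmid; renilla luciferase signal reporting endogenous miR-122 activity after 48 h compound exposure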

Chain of Paired box protein Pax-8 (Q06710 whole entry): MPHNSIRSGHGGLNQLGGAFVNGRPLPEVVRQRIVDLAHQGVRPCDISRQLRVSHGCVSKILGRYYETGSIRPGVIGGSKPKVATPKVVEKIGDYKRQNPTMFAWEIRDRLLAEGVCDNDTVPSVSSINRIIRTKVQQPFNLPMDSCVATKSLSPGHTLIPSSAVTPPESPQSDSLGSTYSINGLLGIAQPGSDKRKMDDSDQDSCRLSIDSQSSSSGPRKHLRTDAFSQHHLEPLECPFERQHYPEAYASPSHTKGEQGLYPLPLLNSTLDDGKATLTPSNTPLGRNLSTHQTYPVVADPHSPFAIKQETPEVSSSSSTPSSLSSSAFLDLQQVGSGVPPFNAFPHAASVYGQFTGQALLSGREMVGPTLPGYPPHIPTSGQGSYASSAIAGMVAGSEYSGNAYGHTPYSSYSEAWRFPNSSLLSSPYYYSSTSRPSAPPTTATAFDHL

Oc1ccnc2ccc(Cl)cc12
AC50 [1]: 13.6 µM (active)

CCC(=O)Nc1ccc2c(c1)OC[C@H](C)N(CC1CCCCC1)C[C@H](C)[C@@H](OC)CN(C)C2=O
AC50 [2]: 55.6 µM (active)
AC50 [3]: 2.21 µM (active)
AC50 [4]: 2.93 µM (active)
AC50 [5]: 4.48 µM (active)

CC(C)(C)c1ccc(C(=O)NCCOc2ccccc2)cc1
IC50 [6]: > 100 µM (inactive)
IC50 [7]: > 100 µM (inactive)
IC50 [8]: 5.62 µM (active)

Cc1c(NS(=O)(=O)c2ccc3c(c2)OCCO3)cccc1-c1nc2cccnc2s1
EC50 [9]: 4.14 µM (active)
IC50 [10]: 4.02 µM (active)
IC50 [11]: 5.27 µM (active)
IC50 [12]: 10.9 µM (active)

C[C@H](CO)N1C[C@H](C)[C@H](CN(C)C(=O)N[C@H](C)c2ccccc2)OCc2ccccc2-c2c(n(C)c3ccccc23)C1=O
AC50 [2]: 64.6 µM (active)
AC50 [13]: 1.53 µM (active)
AC50 [3]: 1.62 µM (active)
AC50 [4]: 0.975 µM (active)
AC50 [5]: 1.07 µM (active)

CCOc1ccc(C(=O)/C=C/c2cc(OC)c(OC)c(OC)c2)cc1
EC50 [9]: 11.5 µM (active)
IC50 [10]: 5.02 µM (active)
IC50 [11]: 5.97 µM (active)
IC50 [12]: 14.7 µM (active)

C[C@@H]1CN([C@@H](C)CO)C(=O)c2cccc(NC(=O)Nc3ccc4c(c3)OCO4)c2O[C@@H]1CN(C)C(=O)Nc1ccc2c(c1)OCO2
AC50 [14]: 1.2 µM (active)
AC50 [15]: 0.954 µM (active)
AC50 [16]: 1.52 µM (active)
AC50 [17]: 0.865 µM (active)

CN1CCN(c2ccc(N)cc2Cl)CC1
AC50 [18]: 0.931 µM (active)
AC50 [19]: > 20 µM (inactive)

C[C@@H]1CN([C@@H](C)CO)C(=O)Cc2cc(NS(=O)(=O)c3ccc(F)cc3)ccc2O[C@H]1CN(C)Cc1ccc(Oc2ccccc2)cc1
AC50 [20]: 5.32 µM (active)
AC50 [21]: 1.96 µM (active)

Cc1nc(NC(=N)N)nc2ccccc12
AC50 [18]: 13.7 µM (active)
